Tested on: schizophrenia
Experiment: not given
Details: phase II trial; altered behavior, delusion, hallucinations, extreme emotions, excited motor activity, incoherent speech; cited from earlier work

| Compound | activity on positive symptoms of schizophrenia |
| --- | --- |
| CC(=O)N(C)C1(c2ccccc2)CCN(CCC[C@]2(c3ccc(Cl)c(Cl)c3)CCCN(C(=O)c3ccccc3)C2)CC1 [SR 142,801, Osanetant] | active |

Same assay, conditions: phase II trial; depression, anhedonia, social isolation, memory and attention deficits; cited from earlier work

| Compound | activity in the treatment of negative symptoms |
| --- | --- |
| CC(=O)N(C)C1(c2ccccc2)CCN(CCC[C@]2(c3ccc(Cl)c(Cl)c3)CCCN(C(=O)c3ccccc3)C2)CC1 [SR 142,801, Osanetant] | inactive |

Target: T1, recombinant human NK3 receptor (Homo sapiens, UniProt P29371)
T1 construct: expressed in transfected cells; host or cells: HEK293 cells (transient expression), membranes
T1 sequence (P29371 1-465): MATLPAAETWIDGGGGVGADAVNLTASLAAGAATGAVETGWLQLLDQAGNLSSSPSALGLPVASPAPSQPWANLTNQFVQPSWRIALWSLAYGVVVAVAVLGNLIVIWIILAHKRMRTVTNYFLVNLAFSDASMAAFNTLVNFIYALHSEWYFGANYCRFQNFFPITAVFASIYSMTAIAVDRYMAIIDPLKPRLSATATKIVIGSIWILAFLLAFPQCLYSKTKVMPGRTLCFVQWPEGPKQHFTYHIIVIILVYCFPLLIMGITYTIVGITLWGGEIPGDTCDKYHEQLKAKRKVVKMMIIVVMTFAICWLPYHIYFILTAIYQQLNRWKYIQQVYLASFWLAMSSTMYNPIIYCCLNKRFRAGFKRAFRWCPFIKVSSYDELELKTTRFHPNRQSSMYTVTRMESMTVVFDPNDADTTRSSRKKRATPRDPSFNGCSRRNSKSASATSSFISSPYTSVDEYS
Experiment: [3H]SR142801 competition binding assay
Details: [3H]SR142801, membranes from HEK293 cells transiently expressing hNK3; read-out: Data (hNK-3 receptor affinity)
Description: [^3H]SR142801 Competition Binding Assay
hNK3 receptor binding experiment were performed using [^3H]SR142801 (Catalog No. TRK1035, specific activity: 74.0 Ci/mmol, Amersham, GE Healthcare UK limited, Buckinghamshire, UK) and membrane isolated from HEK293 cells transiently expressing recombinant human NK3 receptor. After thawing, the membrane homogenates were centrifuged at 48,000×g for 10 min at 4° C., the pellets were resuspended in the 50 mM Tris-HCl, 4 mM MnCl2, 1 μM phosphoramidon, 0.1% BSA binding buffer at pH 7.4 to a final assay concentration of 5 μg protein/well. For inhibition experiments, membranes were incubated with [^3H]SR142801 at a concentration equal to KD value of radioligand and 10 concentrations of the inhibitory compound (0.0003-10 μM) (in a total reaction volume of 500 μl) for 75 min at room temperature (RT). At the end of the incubation, membranes were filtered onto unitfilter (96-well white microplate with bonded GF/C filter preincubated 1 h in 0.3% PEI+0.3% BSA, Packard BioScience, Meriden, Conn.) with a Filtermate 196 harvester (Packard BioScience) and washed 4 times with ice-cold 50 mM Tris-HCl, pH 7.4 buffer. Nonspecific binding was measured in the presence of 10 μM SB222200 for both radioligands. The radioactivity on the filter was counted (5 min) on a Packard Top-count microplate scintillation counter with quenching correction after addition of 45 μl of microscint 40 (Can berra Packard S. A., Zürich, Switzerland) and shaking for 1 h. Inhibition curves were fitted according to the Hill equation: y=100/(1+(x/IC50)^nH), where nH=slope factor using Excel-fit 4 software (Microsoft). IC50 values were derived from the inhibition curve and the affinity constant (Ki) values were calculated using the Cheng-Prussoff equation Ki=IC50/(1+[L]/KD) where [L] is the concentration of radioligand and KD is its dissociation constant at the receptor, derived from the saturation isotherm. All experiments were performed in duplicate and the mean±standard error (SEM) of the individual Ki values was calculated.

| Compound | Ki [µM] |
| --- | --- |
| N#Cc1ccccc1N1CCN(C(=O)[C@@H]2C[C@H](NCc3ccc(F)cc3F)CN2Cc2ccccc2)CC1 [Example 1, 2-{4-[(2S,4S)-1-Benzyl-4-(2,4-difluoro-benzylamino)-pyrrolidine-2-carbonyl]-piperazin-1-yl}-benzonitrile] | 0.0122 |
| O=C([C@@H]1C[C@H](NCc2ccc(F)cc2F)CN1Cc1ccccc1)N1CCN(c2cccc(C(F)(F)F)c2)CC1 [Example 5, [(2S,4S)-1-Benzyl-4-(2,4-difluoro-benzylamino)-pyrrolidin-2-yl]-[4-(3-trifluoromethyl-phenyl)-piperazin-1-yl]-methanone] | 0.0376 |
| O=C([C@@H]1C[C@H](NCc2ccc(F)cc2F)CN1Cc1ccccc1)N1CCN(c2ccccc2)CC1 [Example 7, [(2S,4S)-1-Benzyl-4-(2,4-difluoro-benzylamino)-pyrrolidin-2-yl]-(4-phenyl-piperazin-1-yl)-methanone] | 0.063 |
| O=C([C@@H]1C[C@H](NCc2ccc(F)cc2F)CN1Cc1ccccc1)N1CCN(c2ccc(F)cc2)CC1 [Example 8, [(2S,4S)-1-Benzyl-4-(2,4-difluoro-benzylamino)-pyrrolidin-2-yl]-[4-(4-fluoro-phenyl)-piperazin-1-yl]-methanone] | 0.0648 |
| O=C([C@@H]1C[C@H](NCc2ccc(F)cc2F)CN1Cc1ccccc1)N1CCN(c2ccccc2Cl)CC1 [Example 10, [(2S,4S)-1-Benzyl-4-(2,4-difluoro-benzylamino)-pyrrolidin-2-yl]-[4-(2-chloro-phenyl)-piperazin-1-yl]-methanone] | 0.0567 |
| COc1ccccc1N1CCN(C(=O)[C@@H]2C[C@H](NCc3ccc(F)cc3F)CN2Cc2ccccc2)CC1 [Example 12, [(2S,4S)-1-Benzyl-4-(2,4-difluoro-benzylamino)-pyrrolidin-2-yl]-[4-(2-methoxy-phenyl)-piperazin-1-yl]-methanone] | 0.0235 |
| COc1cc2c(cc1OC)CN(C(=O)[C@@H]1C[C@H](NCc3ccc(F)cc3F)CN1Cc1ccccc1)CC2 [Example 13, [(2S,4S)-1-Benzyl-4-(2,4-difluoro-benzylamino)-pyrrolidin-2-yl]-(6,7-dimethoxy-3,4-dihydro-1H-isoquinolin-2-yl)-methanone] | 0.0394 |
| CN(Cc1cc(C(F)(F)F)cc(C(F)(F)F)c1)[C@H]1C[C@@H](C(=O)N2CCN(c3ccccc3C#N)CC2)N(Cc2ccccc2)C1 [Example 32, 2-(4-{(2S,4S)-1-Benzyl-4-[(3,5-bis-trifluoromethyl-benzyl)-methyl-amino]-pyrrolidine-2-carbonyl}-piperazin-1-yl)-benzonitrile] | 0.0644 |
| COc1cc(CN[C@H]2C[C@@H](C(=O)N3CCN(c4ccccc4C#N)CC3)N(Cc3ccccc3)C2)cc(OC)c1 [Example 34, 2-{4-[(2S,4S)-1-Benzyl-4-(3,5-dimethoxy-benzylamino)-pyrrolidine-2-carbonyl]-piperazin-1-yl}-benzonitrile] | 0.044 |
| N#Cc1ccccc1N1CCN(C(=O)[C@@H]2C[C@H](NCc3ccccc3C(F)(F)F)CN2Cc2ccccc2)CC1 [Example 36, 2-{4-[(2S,4S)-1-Benzyl-4-(2-trifluoromethyl-benzylamino)-pyrrolidine-2-carbonyl]-piperazin-1-yl}-benzonitrile] | 0.0948 |
| N#Cc1ccccc1N1CCN(C(=O)[C@@H]2C[C@H](NCc3cc(C(F)(F)F)ccc3Cl)CN2Cc2ccccc2)CC1 [Example 38, 2-{4-[(2S,4S)-1-Benzyl-4-(2-chloro-5-trifluoromethyl-benzylamino)-pyrrolidine-2-carbonyl]-piperazin-1-yl}-benzonitrile] | 0.058 |
| N#Cc1ccccc1N1CCN(C(=O)[C@@H]2C[C@H](NCc3cccc(Cl)c3)CN2Cc2ccccc2)CC1 [Example 40, 2-{4-[(2S,4S)-1-Benzyl-4-(3-chloro-benzylamino)-pyrrolidine-2-carbonyl]-piperazin-1-yl}-benzonitrile] | 0.071 |
| N#Cc1ccccc1N1CCN(C(=O)[C@@H]2C[C@H](NCc3ccc(F)c(Cl)c3)CN2Cc2ccccc2)CC1 [Example 45, 2-{4-[(2S,4S)-1-Benzyl-4-(3-chloro-4-fluoro-benzylamino)-pyrrolidine-2-carbonyl]-piperazin-1-yl}-benzonitrile] | 0.0279 |
| N#Cc1ccccc1N1CCN(C(=O)[C@@H]2C[C@H](NCc3ccc(Cl)c(Cl)c3)CN2Cc2ccccc2)CC1 [Example 48, 2-{4-[(2S,4S)-1-Benzyl-4-(3,4-dichloro-benzylamino)-pyrrolidine-2-carbonyl]-piperazin-1-yl}-benzonitrile] | 0.029 |
| N#Cc1ccccc1N1CCN(C(=O)[C@@H]2C[C@H](NCc3cccc(Cl)c3F)CN2Cc2ccccc2)CC1 [Example 49, 2-{4-[(2S,4S)-1-Benzyl-4-(3-chloro-2-fluoro-benzylamino)-pyrrolidine-2-carbonyl]-piperazin-1-yl}-benzonitrile] | 0.048 |
| N#Cc1ccccc1N1CCN(C(=O)C2CC(NCc3ccc(F)cc3F)CN2Cc2cccc(F)c2)CC1 (stereo not shown) [Example 54, 2-{4-[4-(2,4-Difluoro-benzylamino)-1-(3-fluoro-benzyl)-pyrrolidine-2-carbonyl]-piperazin-lyl}-benzonitrile] | 0.047 |
| CN(Cc1cc(C(F)(F)F)cc(C(F)(F)F)c1)[C@H]1C[C@@H](C(=O)N2CCN(c3cccc(C(F)(F)F)c3)CC2)N(Cc2ccccc2)C1 [Example 62, {(2S,4S)-1-Benzyl-4-[(3,5-bis-trifluoromethyl-benzyl)-methyl-amino]-pyrrolidin-2-yl}-[4-(3-trifluoromethyl-phenyl)-piperazin-1-yl]-methanone] | 0.039 |
| CN(Cc1cc(C(F)(F)F)cc(C(F)(F)F)c1)[C@H]1C[C@@H](C(=O)N2CCN(c3cccc(C(F)(F)F)c3)CC2)N(Cc2cccc(Cl)c2)C1 [Example 68, [(2S,4S)-4-[(3,5-Bis-trifluoromethyl-benzyl)-methyl-amino]-1-(3-chloro-benzyl)-pyrrolidin-2-yl]-[4-(3-trifluoromethyl-phenyl)-piperazin-1-yl]-methanone] | 0.0412 |
| O=C([C@@H]1C[C@@H](NCc2ccc(F)cc2F)CN1Cc1ccccc1)N1CCN(c2cccc(C(F)(F)F)c2)CC1 [Example 87, [(2S,4R)-1-Benzyl-4-(2,4-difluoro-benzylamino)-pyrrolidin-2-yl]-[4-(3-trifluoromethyl-phenyl)-piperazin-1-yl]-methanone] | 0.052 |
| N#Cc1ccccc1N1CCN(C(=O)[C@@H]2C[C@@H](NCc3ccc(F)cc3F)CN2Cc2ccccc2)CC1 [Example 88, 2-{4-[(2S,4R)-1-Benzyl-4-(2,4-difluoro-benzylamino)-pyrrolidine-2-carbonyl]-piperazin-1-yl}-benzonitrile] | 0.097 |
